{"source": "patent US20070071815A1", "about": "(priority 2004, published 2007)", "origin": "cited, not measured here", "data": [{"smiles": "CN(CC(=O)O)C(=N)N", "note": "[creatine, N-(aminoiminomethyl)-N-methylglycine]", "values": [{"measurement": "half-life of creatine in blood plasma", "result": "1 to 1.5", "unit": "h"}]}]}
